Assay results reported in patent publication US7585839B2, “Medical uses of intercellular communication facilitating compounds” (Zealand Pharma A/S, priority 2001, dated 2009).

What was measured:
[1] = system: alkaline phosphatase (ALP) activity of human osteoblasts; assay: Alkaline phosphatase assay, human osteoblasts; format: cell-based
Method: Day 1: Cells were plated in 96-well plates at a conc. of 8000 cells/well (hOB) or 3000 cells/well (ROS) in 200 μl normal culture medium.
Day 2: Medium was changed on the cells.
Day 4: (Day 3 for ROS): Cells were washed with 200 μl MEM, 0.1% BSA (Sigma, Cat.No. A-9418).
Day 8: (Day 5 for ROS): Alkaline Phosphatase (ALP) assay is a colorimetric endpoint method for measuring enzyme activity, and was done using Alkaline Phosphatase Kit (Sigma, Cat.No. 104-LL): Cells were washed once with 200 μl PBS+Ca,Mg. 100μl Alkaline Buffer Solution was added to each well and plate was placed at 37° C. for 10 min. 100 μl Substrate Solution was added to each well and plate was incubated at 37° C. for 30 min. 100 μl 2.0 N NaOH was added to each well to stop the reaction. Absorbance was measured using a plate reader at 405 nm.

human osteoblast = human osteoblast cultures and rat osteosarcoma cell lines; conference abstract; cited from earlier work
ROS 17/2.8 cells = assay: Intercellular calcium waves after mechanical stimulation, ROS 17/2.8 cells; format: cell-based, rat; conditions: 48 hours hypoxia 3-6% O2; 10^−8 M, 10 minutes; 2.2 cells before
Method: ROS 17/2.8 cells: Cells were cultured in 100 mm dishes at 37° C. with 5% CO2 and medium change every 2-3 days. ROS medium (all reagents obtained from Life Technologies): MEM (Cat.No. 31095) supplemented with 10% heat-inactivated calf serum (Cat.No. 16170), 1% NEAA (Cat.No. 11140), 1% Sodium Pyruvate (Cat.No. 11360), 1% L-Glutamine (Cat.No. 25030) and 0.1% Penicillin/Streptomycin (Cat,No. 15140). For video imaging experiments, cells were plated on coverslips at 2-3×10^5 cells/coverslip and cultured for 2-3 days before use.
The cells cultured on coverslips were loaded with 5 μM fura-2-AM (Molecular Probes, Cat.No. F-1221), for 30 minutes at 37° C., and incubated in fresh medium for 20 minutes. Coverslips were then affixed to a PDMI-2 culture chamber (Medical Systems Corp.), maintained at 37° C. with superfused CO2, on a Zeiss Axiovert microscope. Intercellular calcium waves were induced by mechanical stimulation of a single cell using a borosilicate glass micro pipette affixed to an Eppendorf 5171 micromanipulator. Imaging was performed using a MetaMorph imaging system (Universal Imaging). The excitation light (340 and 380 nm) was provided by a monochromator (T.I.L.L. Photonics GmbH). Images were acquired with an intensified CCD camera (Dage MTI) and digitized with a Matrox MVP image processing board.

human osteoblastic cells [2] = assay: Intercellular calcium waves after mechanical stimulation, human osteoblastic cells; format: cell-based
Method: (§1) Human osteblast cells (hOB): Cells were isolated from human bone marrow obtained by puncture of the posterior iliac spine of healthy volunteers (aged 20-36): 10-15 ml marrow material was collected in 15 ml PBS+Ca,Mg (Life Technologies, Cat.No. 14040) with 100 U/ml Heparin (Sigma, Cat.No. H-3149). The mononuclear fraction of the marrow was isolated on a Lymphoprep gradient (Nycomed Pharma, Cat.No. 1001967), by centrifugation at 2200 rpm for 30 min. After harvesting, the mononuclear fraction was washed once with culture medium and centrifuged at 1800 rpm for 10 min. Subsequently cells were counted and plated in culture medium at 8×10^6 cells/100 mm dish. hOB medium (all reagents obtained from Life Technologies): MEM w/o Phenol Red w/Glutamax (Cat.No. 041-93013) supplemented with 10% heat inactivated fetal calf serum (Cat.No. 10106) and 0.1% Penicillin/Streptomycin (Cat.No. 15140). Medium was changed the following day and the cells were cultured at 37° C. in 5% CO2 with medium change every 7 days. After 3-4 weeks of culture the cells had reached 70% confluence. The medium was then supplemented with 100 nM Dexamethasone (Sigma, Cat.No. D-4902) for 7 days. Cells were then plated for video imaging experiments: a 25 mm #1 glass coverslip was placed in a 35 mm dish (or each well of a 6-well multidish), cells were plated at 2.5×10^5 cells/coverslip and cultured for 2-3 days before use. […]

human osteoblastic cells [3] = assay: DDT-induced uncoupling in human osteoblast cells, Lucifer Yellow microinjection; format: cell-based; conditions: after DDT 13 μM 60 minutes; 10^−8 mol/l, 10 minutes; p<0.01
Method: as §1, with “osteoblast cells:” for “osteblast cells (hOB):”, “PBS+Ca, Mg” for “PBS+Ca,Mg”, “5%CO2” for “5% CO2”

Substance: Ac-D-Tyr-D-Pro-D-4Hyp-Gly-D-Ala-Gly-NH2 [Compound 2]
- stimulation of ALP activity during hypoxia, greater than during normoxia ([1]; 5% O2 four days, 10^−11 to 10^−8 mol/l): about 15%
- ALP activity ([1]; normal culture conditions, 1×10^−13 to 1×10^−6): increased ALP activity at most of the concentrations tested
- hypoxia-induced decrease of intercellular communication (human osteoblast): completely reversed
- average number of cells in the calcium wave (ROS 17/2.8 cells): 5.4 cells
- average number of cells in the calcium wave (human osteoblastic cells [2]; after ATP desensitization, 10^−8 mol/l, 10 minutes, 4.5 cells before): 6.2 cells
- average number of cells in the calcium wave (human osteoblastic cells [2]; medium without glucose, 10^−8 M, 1.4 cells before): 2.9 cells
- cell-to-cell dye transfer, median number of cells (human osteoblastic cells [3]): 8.3 cells
